In brackets after ≈: the same amount, converted by molar mass.
Experiments:
[1] = Clearance in female BALB/c mouse at 1 mg/kg, iv measured after 24 hrs by LC-MS/MS analysis; type: ADME, organism-based; details: in vivo
A-375 = assay: Cytotoxicity against human A-375 cells assessed as reduction in cell viability incubated for 120 hrs by CellTiter-Glo luminescence assay; type: functional, cell-based; details: A-375, 120 h
[2] = Oral bioavailability in female BALB/c mouse at 10 mg/kg measured after 24 hrs by LC-MS/MS analysis; type: ADME, organism-based; details: in vivo
[3] = Apparent permeability across apical to basolateral side in human Caco-2 cells at 5 uM incubated for 2 hrs by LC-MS/MS analysis; type: ADME, cell-based
[4] = Half-life in female BALB/c mouse at 1 mg/kg, iv measured after 24 hrs by LC-MS/MS analysis; type: ADME, organism-based; details: in vivo
[5] = Inhibition of 6His-tagged KRAS G12C mutant(1 to 169 residues)/GST-tagged GMPPNP-bound BRAF RBD (155 to 229 reisudes)/Cyclophilin A (unknown origin) tri-complex protein-protein interaction incubated for 3 hrs by TR-FERT based disruption assay; parameters: species or system Homo sapiens
[6] = Inhibition of ERK1/2 phosphorylation in human NCI-H358 cells harboring KRAS G12C mutant incubated for 4 hrs by AlphaLISA assay; type: cell-based; details: NCI-H358, 4 h
[7] = (§1) In vivo inhibition of MAPK signaling pathway in female BALB/c nude mouse xenografted with human NCI-H441 cells harboring wildtype KRAS/KRAS G12V mutant assessed as decrease in DUSP6 mRNA expression in tumor at 100 mg/kg, po administered as single dose and measured after 2 hrs by qPCR analysis relative to control; type: functional
NCI-H358 = assay: Cytotoxicity against human NCI-H358 cells harboring KRAS G12C mutant cultured as 2D cells assessed as reduction in cell viability incubated for 120 hrs by CellTiter-Glo luminescence assay; type: functional, cell-based; details: NCI-H358, 120 h
[8] = Inhibition of ERK1/2 phosphorylation in human ASPC1 cells harboring KRAS G12D mutant incubated for 4 hrs by AlphaLISA assay; type: cell-based; details: ASPC1, 4 h
[9] = Efflux ratio of apparent permeability in human Caco-2 cells at 5 uM incubated for 2 hrs by LC-MS/MS analysis; type: ADME, cell-based
[10] = Lipophilicity, logD of compound at pH 7.4 by Agilent 1290 II uPLC analysis; type: physicochemical; details: buffer
[11] = as §1, with “200” for “100”; type: functional
[12] = target: Peptidyl-prolyl cis-trans isomerase A (Homo sapiens, UniProt P62937); assay: Binding affinity to Avi-tagged Cyclophilin A (unknown origin) assessed as dissociation constant by SPR analysis
[13] = Inhibition of 6His-tagged wildtype KRAS (1 to 169 residues)/GST-tagged GMPPNP-bound BRAF RBD (155 to 229 reisudes)/Cyclophilin A (unknown origin) tri-complex protein-protein interaction incubated for 3 hrs by TR-FERT based disruption assay; parameters: species or system Homo sapiens
[14] = Inhibition of ERK1/2 phosphorylation in human CAPAN-1 cells harboring KRAS G12V mutant incubated for 4 hrs by AlphaLISA assay; type: cell-based; details: CAPAN-1, 4 h
[15] = Metabolic stability in mouse liver microsomes assessed as half-life at 2 uM measured upto 60 mins in presence of NADPH by LC-MS/MS analysis; type: ADME, Microsome
NCI-H1975 = assay: Cytotoxicity against human NCI-H1975 cells harboring wildtype KRAS cultured as 2D cells assessed as reduction in cell viability incubated for 120 hrs by CellTiter-Glo luminescence assay; type: functional, cell-based; details: NCI-H1975, 120 h
[16] = Kinetic solubility of compound in PBS at pH 7.4 measured after 5 hrs by UV analysis; type: physicochemical; details: read-out: Kinetic_solubility
CAPAN-1 = assay: Cytotoxicity against human CAPAN-1 cells harboring KRAS G12V mutant cultured as 2D cells assessed as reduction in cell viability incubated for 120 hrs by CellTiter-Glo luminescence assay; type: functional, cell-based; details: CAPAN-1, 120 h
[17] = Inhibition of 6His-tagged KRAS G12D mutant(1 to 169 residues)/GST-tagged GMPPNP-bound BRAF RBD (155 to 229 reisudes)/Cyclophilin A (unknown origin) tri-complex protein-protein interaction incubated for 3 hrs by TR-FERT based disruption assay; parameters: species or system Homo sapiens
ASPC1 = assay: Cytotoxicity against human ASPC1 cells harboring KRAS G12D mutant cultured as 2D cells assessed as reduction in cell viability incubated for 120 hrs by CellTiter-Glo luminescence assay; type: functional, cell-based; details: ASPC1, 120 h
[18] = Binding affinity to Cyclophilin A/Avi-tagged KRAS G12C mutant (1 to 169 residues) (unknown origin) assessed as dissociation constant by SPR analysis; parameters: species or system Homo sapiens
[19] = Inhibition of 6His-tagged KRAS G12V mutant(1 to 169 residues)/GST-tagged GMPPNP-bound BRAF RBD (155 to 229 reisudes)/Cyclophilin A (unknown origin) tri-complex protein-protein interaction incubated for 3 hrs by TR-FERT based disruption assay; parameters: species or system Homo sapiens
[20] = Binding affinity to Cyclophilin A/Avi-tagged KRAS G12V mutant (1 to 169 residues) (unknown origin) assessed as dissociation constant by SPR analysis; parameters: species or system Homo sapiens
[21] = Binding affinity to Cyclophilin A/Avi-tagged KRAS G12D mutant (1 to 169 residues) (unknown origin) assessed as dissociation constant by SPR analysis; parameters: species or system Homo sapiens
[22] = Inhibition of 6His-tagged wildtype HRAS (1 to 169 residues)/GST-tagged GMPPNP-bound BRAF RBD (155 to 229 reisudes)/Cyclophilin A (unknown origin) tri-complex protein-protein interaction incubated for 3 hrs by TR-FERT based disruption assay; parameters: species or system Homo sapiens
[23] = Inhibition of 6His-tagged NRAS G61K mutant(1 to 169 residues)/GST-tagged GMPPNP-bound BRAF RBD (155 to 229 reisudes)/Cyclophilin A (unknown origin) tri-complex protein-protein interaction incubated for 3 hrs by TR-FERT based disruption assay; parameters: species or system Homo sapiens
[24] = Inhibition of 6His-tagged KRAS G12R mutant(1 to 169 residues)/GST-tagged GMPPNP-bound BRAF RBD (155 to 229 reisudes)/Cyclophilin A (unknown origin) tri-complex protein-protein interaction incubated for 3 hrs by TR-FERT based disruption assay; parameters: species or system Homo sapiens
[25] = Inhibition of 6His-tagged KRAS G61H mutant(1 to 169 residues)/GST-tagged GMPPNP-bound BRAF RBD (155 to 229 reisudes)/Cyclophilin A (unknown origin) tri-complex protein-protein interaction incubated for 3 hrs by TR-FERT based disruption assay; parameters: species or system Homo sapiens
[26] = Inhibition of 6His-tagged wildtype NRAS (1 to 169 residues)/GST-tagged GMPPNP-bound BRAF RBD (155 to 229 reisudes)/Cyclophilin A (unknown origin) tri-complex protein-protein interaction incubated for 3 hrs by TR-FERT based disruption assay; parameters: species or system Homo sapiens
[27] = Kinetic solubility of compound in PBS at pH 5.0 measured after 5 hrs by UV analysis; type: physicochemical; details: read-out: Kinetic_solubility
[28] = Oral bioavailability in female BALB/c mouse plasma at 10 mg/kg measured after 24 hrs by LC-MS/MS analysis; type: ADME, organism-based
[29] = Oral bioavailability in female BALB/c mouse blood at 10 mg/kg measured after 24 hrs by LC-MS/MS analysis; type: ADME, organism-based
[30] = Clearance in female BALB/c mouse plasma at 1 mg/kg, iv measured after 24 hrs by LC-MS/MS analysis; type: ADME, organism-based
[31] = Clearance in female BALB/c mouse blood at 1 mg/kg, iv measured after 24 hrs by LC-MS/MS analysis; type: ADME, organism-based

Sequence of Peptidyl-prolyl cis-trans isomerase A (P62937 whole entry, the tested form may be a part): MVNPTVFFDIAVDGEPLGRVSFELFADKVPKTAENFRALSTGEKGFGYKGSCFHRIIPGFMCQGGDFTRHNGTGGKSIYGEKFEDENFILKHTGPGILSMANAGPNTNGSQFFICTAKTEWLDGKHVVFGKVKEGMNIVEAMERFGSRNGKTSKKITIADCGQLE

| clearance [1] [mL/min/kg] | bioavailability [2] [%] | Papp A→B at 2 h, 5 µM [3] [×10⁻⁶ cm/s] | IC50 [5] [µM] | EC50 [6] [µM] | EC50 [8] [µM] | efflux ratio at 2 h, 5 µM [9] | logD [10] | Kd [12] [µM] | IC50 [13] [µM] | EC50 [14] [µM] | half-life at 2 µM [15] [min] | solubility kinetic at 5 h [16] [µM] | IC50 [17] [µM] | IC50 [19] [µM] | Compound | EC50 (A-375) [µM] | EC50 (NCI-H358) [µM] | EC50 (NCI-H1975) [µM] | EC50 (CAPAN-1) [µM] | EC50 (ASPC1) [µM] | also measured |
| --- | --- | --- | --- | --- | --- | --- | --- | --- | --- | --- | --- | --- | --- | --- | --- | --- | --- | --- | --- | --- | --- |
| 33.3 | 17 | 0.6 | 0.078 | 0.005 | 0.061 | 9.6 | 4.8 | 0.283 | 0.2 | 0.003 | 19 | 12 (≈ 10.3 µg/mL) | 1.16 |  | CCn1c(-c2cccnc2[C@H](C)OC)c2c3cc(ccc31)-c1csc(n1)C[C@H](NC(=O)[C@H](C(C)C)N(C)C(=O)N1CC(OC)C1)C(=O)N1CCC[C@H](N1)C(=O)OCC(C)(C)C2 | > 10 | 0.007 | 0.022 | 0.016 |  | half-life [4]: 90 min; inhibition in vivo at 100 mg/kg [7]: 87%; inhibition in vivo at 200 mg/kg [11]: 94%; IC50 (ASPC1): 0.076 µM |
|  |  |  | 2.04 |  |  |  |  | 1.15 |  |  |  |  | 26.1 | 3.52 | CCn1c(-c2cccnc2[C@H](C)OC)c2c3cc(ccc31)-c1cccc(c1)C[C@H](NC(=O)[C@H](C(C)C)N(C)C(C)=O)C(=O)N1CCC[C@H](N1)C(=O)OCC(C)(C)C2 |  | 1.53 | > 10 | 1.14 | 4.41 | Kd [18]: 2.82 µM; Kd [20]: 4.93 µM; Kd [21]: 10.7 µM |
|  |  |  | 1.6 |  |  |  |  | 0.897 | 5.1 |  |  |  | 12.9 | 4.4 | CCn1c(-c2cccnc2[C@H](C)OC)c2c3cc(ccc31)-c1cccc(c1)C[C@H](NC(=O)[C@H](C(C)C)N(C)C(=O)[C@H]1CCN(C(C)=O)C1)C(=O)N1CCC[C@H](N1)C(=O)OCC(C)(C)C2 |  | 1.09 | 1.14 | 0.948 | 1.86 | Kd [18]: 2.05 µM; IC50 [22]: 3.5 µM; IC50 [23]: 3.5 µM; IC50 [24]: 8.4 µM; IC50 [25]: 1.3 µM; Kd [20]: 5.83 µM; Kd [21]: 3.55 µM; IC50 [26]: 3.2 µM |
| 10 | 75 | 10.7 | 0.117 | 0.068 | 0.818 | 1 | 4.7 | 1.76 | 0.344 | 0.025 | 53 | 3 (≈ 2.14 µg/mL) | 0.927 | 0.165 | CCn1c(-c2cccnc2[C@H](C)OC)c2c3cc(ccc31)-c1csc(n1)C[C@H](NC(=O)[C@H]1C[C@@H]1C)C(=O)N1CCC[C@H](N1)C(=O)OCC(C)(C)C2 | 8.37 | 0.083 | 0.069 | 0.129 | 0.236 | half-life [4]: 54 min; solubility kinetic at 5 h [27]: < 2 µM |
| 95 | ≤ 0.4 | 0.02 | 1.97 | 0.116 | 0.857 | 13.6 |  | 0.313 | 4.92 | 0.032 | 6 | 6 (≈ 4.72 µg/mL) | ≥ 21.2 | 3.55 | CCn1c(-c2cccnc2[C@H](C)OC)c2c3cc(ccc31)-c1csc(n1)C[C@H](NC(=O)[C@H](C(C)C)N(C)C(C)=O)C(=O)N1CCC[C@H](N1)C(=O)OCC(C)(C)C2 | > 10 | 0.199 | 0.057 | 0.149 | ≥ 0.715 | Kd [18]: 1.54 µM; half-life [4]: 36 min; Kd [20]: 2.7 µM; Kd [21]: 5.05 µM |
|  |  | 0.9 | 0.031 | 0.0009 | 0.0041 | 7 | 5.2 | 0.216 | 0.076 | 0.0005 | 60 | 20 (≈ 17.3 µg/mL) | 0.175 | 0.043 | CCn1c(-c2cc(N3CCN(C4CC4)CC3)cnc2[C@H](C)OC)c2c3cc(ccc31)-c1csc(n1)C[C@H](NC(=O)[C@H]1[C@@H]3COC[C@@H]31)C(=O)N1CCC[C@H](N1)C(=O)OCC(C)(C)C2 | 8.37 | 0.0008 | 0.0019 | 0.0021 | 0.0049 | bioavailability [28]: 88%; bioavailability [29]: 63%; clearance [30]: 6.67 mL/min/kg; clearance [31]: 6.67 mL/min/kg |
|  |  | 1 | 0.054 | 0.0034 | 0.0077 | 9 | 4.7 | 0.13 | 0.152 | 0.0008 | 103 | 45 (≈ 38.5 µg/mL) | 0.385 | 0.078 | CCn1c(-c2cc(N3CCN(CCOC)CC3)cnc2[C@H](C)OC)c2c3cc(ccc31)-c1csc(n1)C[C@H](NC(=O)[C@H]1C[C@@H]1C)C(=O)N1CCC[C@H](N1)C(=O)OCC(C)(C)C2 | > 10 | 0.0018 | 0.0094 | 0.0028 | 0.0061 | bioavailability [28]: 57%; bioavailability [29]: 71%; clearance [30]: 30 mL/min/kg; clearance [31]: 6.67 mL/min/kg |
|  |  | 0.6 | 0.04 | 0.0029 | 0.0042 | 12 |  | 0.077 | 0.103 | 0.0007 | > 120 | 56 (≈ 47.8 µg/mL) | 0.249 | 0.055 | CCn1c(-c2cc(N3CCN(C4COC4)CC3)cnc2[C@H](C)OC)c2c3cc(ccc31)-c1csc(n1)C[C@H](NC(=O)[C@H]1C[C@@H]1C)C(=O)N1CCC[C@H](N1)C(=O)OCC(C)(C)C2 | > 10 | 0.0008 | 0.0009 | 0.0018 | 0.0041 | bioavailability [28]: 27%; bioavailability [29]: 49%; clearance [30]: 51.7 mL/min/kg; clearance [31]: 6.67 mL/min/kg |
